US9416114B2, “1,2,4-triazine derivatives for the treatment of viral infections” (CENTRE NATIONAL DE LA RECHERCHE SCIENTIFIQUE (CNRS), priority 2012, dated 2016)
Like-named read-outs stand apart in the source and are kept apart here.

Key:
Assay type in all cases: cell-based
[1] = biological target: T1, human TLR7 (Homo sapiens, UniProt Q9NYK1); test: TLR7 cellular reporter assay (HEK293, NFκB-luc); settings: HEK293 transiently transfected with TLR7 and NFκB-luc; 6 hours incubation; lowest effective concentration
T1 construct: expressed in transfected cells; host or cells: HEK293
T1 sequence (Q9NYK1 27-1049): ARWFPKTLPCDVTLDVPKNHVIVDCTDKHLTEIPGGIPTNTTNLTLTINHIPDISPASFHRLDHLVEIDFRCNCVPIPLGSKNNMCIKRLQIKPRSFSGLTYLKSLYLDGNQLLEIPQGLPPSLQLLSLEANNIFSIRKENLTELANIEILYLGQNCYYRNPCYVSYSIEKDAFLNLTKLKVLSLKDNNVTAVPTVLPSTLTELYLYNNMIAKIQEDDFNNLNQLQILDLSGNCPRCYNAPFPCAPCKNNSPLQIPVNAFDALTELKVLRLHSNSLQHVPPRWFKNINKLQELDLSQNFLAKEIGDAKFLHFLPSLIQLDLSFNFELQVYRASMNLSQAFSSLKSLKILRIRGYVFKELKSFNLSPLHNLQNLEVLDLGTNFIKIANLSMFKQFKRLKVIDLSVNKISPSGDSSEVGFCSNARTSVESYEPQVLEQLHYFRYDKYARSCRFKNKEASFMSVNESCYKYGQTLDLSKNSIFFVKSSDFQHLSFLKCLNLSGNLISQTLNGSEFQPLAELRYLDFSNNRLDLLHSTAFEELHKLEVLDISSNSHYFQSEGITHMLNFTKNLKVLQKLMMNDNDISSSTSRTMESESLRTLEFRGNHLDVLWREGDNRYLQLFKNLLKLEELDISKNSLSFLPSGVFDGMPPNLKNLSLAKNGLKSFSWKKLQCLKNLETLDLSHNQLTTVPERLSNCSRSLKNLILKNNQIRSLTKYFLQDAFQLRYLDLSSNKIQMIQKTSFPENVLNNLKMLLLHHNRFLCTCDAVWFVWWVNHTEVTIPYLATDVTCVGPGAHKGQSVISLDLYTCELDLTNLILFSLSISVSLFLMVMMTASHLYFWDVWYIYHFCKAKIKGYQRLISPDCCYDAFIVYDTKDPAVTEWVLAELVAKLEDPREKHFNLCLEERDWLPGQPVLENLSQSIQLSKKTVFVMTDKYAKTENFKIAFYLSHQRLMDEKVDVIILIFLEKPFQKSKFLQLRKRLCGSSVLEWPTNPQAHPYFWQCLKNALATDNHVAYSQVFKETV
Experimental: (§1) The ability of compounds to activate human TLR7 and/or TLR8 was assessed in a cellular reporter assay using HEK293 cells transiently transfected with a TLR7 or TLR8 expression vector and NFκB-luc reporter construct.
(§2) Briefly, HEK293 cells were grown in culture medium (DMEM supplemented with 10% FCS and 2 mM Glutamine). For transfection of cells in 10 cm dishes, cells were detached with Trypsin-EDTA, transfected with a mix of CMV-TLR7 or TLR8 plasmid (750 ng), NFκB-luc plasmid (375 ng) and a transfection reagent and incubated overnight at 37° C. in a humidified 5% CO2 atmosphere. […] Thirty microliters of cells were then dispensed into each well in 384-well plates, where 10 μL of compound in 4% DMSO was already present. Following 6 hours incubation at 37° C., 5% CO2, the luciferase activity was determined by adding 15 μL of Steady Lite Plus substrate (Perkin Elmer) to each well and readout performed on a ViewLux ultraHTS microplate imager (Perkin Elmer). Dose response curves were generated from measurements performed in quadruplicates.

[2] = system: interferon-stimulated responsive elements (ISRE); test: Activation of ISRE promoter elements by conditioned media from PBMC (HEK-ISREluc); settings: Homo sapiens, read-out: HEK-ISRE luc (LEC)
Experimental: The potential of compounds to induce IFN-I was also evaluated by measuring the activation of interferon-stimulated responsive elements (ISRE) by conditioned media from PBMC. The ISRE element of sequence […] is highly responsive to the STAT1-STAT2-IRF9 transcription factor, activated upon binding of IFN-I to their receptor IFNAR (Clontech, PT3372-5W). The plasmid pISRE-Luc from Clontech (ref. 631913) contains 5 copies of this ISRE element, followed by the firefly luciferase ORF. A HEK293 cell line stably transfected with pISRE-Luc (HEK-ISREluc) was established to profile of the conditioned PBMC cell culture media.
Briefly, PBMCs were prepared from buffy coats of at least two donors using a standard Ficoll centrifugation protocol. Isolated PBMCs were resuspended in RPMI medium supplemented with 10% human AB serum and 2×10^5 cells/well were dispensed into 384-well plates containing compounds (70 μL total volume). After overnight incubation, 10 μL of supernatant was transferred to 384-well plates containing 5×10^3 HEK-ISREluc cells/well in 30 μL (plated the day before). Following 24 hours of incubation, activation of the ISRE elements was measured by assaying luciferase activity using 40 μL/well Steady Lite Plus substrate (Perkin Elmer) and measured with ViewLux ultraHTS microplate imager (Perkin Elmer). The stimulating activity of each compound on the HEK-ISREluc cells was reported as LEC value, defined as the compound concentration applied to the PBMCs resulting in a luciferase activity at least two fold above the standard deviation of the assay. The LEC in turn indicates the degree of ISRE activation on transfer of a defined amount of PBMC culture medium. Recombinant interferon α-2a (Roferon-A) was used as a standard control compound.

[3] = biological target: T2, human TLR8 (Homo sapiens, UniProt Q9NR97); test: TLR8 cellular reporter assay (HEK293, NFκB-luc); settings: HEK293 transiently transfected with TLR8 and NFκB-luc; 6 hours incubation; lowest effective concentration
T2 construct: expressed in transfected cells; host or cells: HEK293
T2 sequence (Q9NR97 27-1041): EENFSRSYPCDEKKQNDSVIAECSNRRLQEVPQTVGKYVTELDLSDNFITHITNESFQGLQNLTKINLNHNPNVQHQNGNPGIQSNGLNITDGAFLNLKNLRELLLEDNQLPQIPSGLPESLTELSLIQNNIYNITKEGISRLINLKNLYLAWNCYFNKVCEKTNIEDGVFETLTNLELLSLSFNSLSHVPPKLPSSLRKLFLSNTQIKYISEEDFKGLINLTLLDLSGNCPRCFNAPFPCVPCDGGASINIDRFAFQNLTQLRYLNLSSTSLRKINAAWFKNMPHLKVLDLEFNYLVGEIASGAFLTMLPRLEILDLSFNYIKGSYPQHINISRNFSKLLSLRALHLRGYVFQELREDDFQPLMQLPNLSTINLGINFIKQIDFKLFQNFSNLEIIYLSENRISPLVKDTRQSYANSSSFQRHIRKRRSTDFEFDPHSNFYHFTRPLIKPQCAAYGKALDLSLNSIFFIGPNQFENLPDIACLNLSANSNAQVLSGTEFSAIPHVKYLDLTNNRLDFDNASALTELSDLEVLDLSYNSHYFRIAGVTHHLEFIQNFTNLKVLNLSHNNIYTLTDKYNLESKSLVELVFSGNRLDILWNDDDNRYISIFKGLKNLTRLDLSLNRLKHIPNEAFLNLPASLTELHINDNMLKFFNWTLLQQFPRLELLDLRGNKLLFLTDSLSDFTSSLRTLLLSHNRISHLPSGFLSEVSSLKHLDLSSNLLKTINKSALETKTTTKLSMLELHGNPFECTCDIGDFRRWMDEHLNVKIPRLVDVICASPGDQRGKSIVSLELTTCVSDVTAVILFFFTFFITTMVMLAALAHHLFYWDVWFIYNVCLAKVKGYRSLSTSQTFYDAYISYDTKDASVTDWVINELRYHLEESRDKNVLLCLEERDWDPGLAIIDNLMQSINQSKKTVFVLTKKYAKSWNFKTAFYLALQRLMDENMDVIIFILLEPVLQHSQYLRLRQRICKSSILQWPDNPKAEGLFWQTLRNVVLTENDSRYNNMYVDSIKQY
Experimental: as §1, §2

[4] = PBMC conditioned medium transferred to HEK-ISREluc cells, 24 hours, lowest effective concentration

In the case of CCCCNc1nc(N)nnc1OC(C)C [Compound 18], the “Human TLR 7 (LEC)” value [1] is reported as 8.27 µM and the minimal effective concentration [2, 4] is reported as 0.53 µM.

In the case of CCCCNc1nc(N)nnc1OCc1ccccc1OC [Compound 19], the minimal effective concentration [2, 4] is reported as 0.43 µM and the “Human TLR 8 (LEC)” value [3] is reported as 0.64 µM.

With CCCCNc1nc(N)nnc1OCc1ccccc1F [Compound 20] the “Human TLR 7 (LEC)” value [1] was 0.75 µM and the minimal effective concentration ([2]; PBMC, 24 h) was 0.54 µM.

For CCCC[C@@H](CCO)Nc1nc(N)nnc1OC [Compound 12], the “Human TLR 7 (LEC)” value [1] was 7.8 µM and the minimal effective concentration [2, 4] was 2.72 µM.

For CCCCNc1nc(N)nnc1OCCCc1ccc(OC)cc1 [Compound 16], the “Human TLR 7 (LEC)” value [1] was 0.38 µM, the minimal effective concentration [2, 4] was 0.14 µM and the “Human TLR 8 (LEC)” value [3] was 0.81 µM.

In the case of CCCCNc1nc(N)nnc1OCc1cccnc1 [Compound 21], the “Human TLR 7 (LEC)” value [1] is reported as 1.71 µM and the minimal effective concentration ([2]; PBMC, 24 h) is reported as 0.14 µM.

With CCCCNc1nc(N)nnc1OCCCN(C)C [Compound 24] the “Human TLR 7 (LEC)” value [1] was over 25 µM, the minimal effective concentration ([2]; PBMC, 24 h) was 0.17 µM and the “Human TLR 8 (LEC)” value [3] was 0.1 µM.

CCC[C@@H](CCO)Nc1nc(N)nnc1OCc1nccc(OC)c1OC [Compound 8] was tested, and the “Human TLR 7 (LEC)” value [1] was 0.24 µM, the minimal effective concentration [2, 4] was 0.014 µM and the “Human TLR 8 (LEC)” value [3] was 0.56 µM.

For CCCCNc1nc(N)nnc1OCCOC [Compound 22], the “Human TLR 7 (LEC)” value [1] was 4.75 µM, the minimal effective concentration ([2]; PBMC, 24 h) was 0.41 µM and the “Human TLR 8 (LEC)” value [3] was 1.0 µM.

CCCCNc1nc(N)nnc1OCc1ccccc1 [Compound 15] was tested, and the “Human TLR 7 (LEC)” value [1] was 2.94 µM, the minimal effective concentration [2, 4] was 1.85 µM and the “Human TLR 8 (LEC)” value [3] was 1.93 µM.

For CCCCNc1nc(N)nnc1OCc1ccccn1 [Compound 23], the “Human TLR 7 (LEC)” value [1] was 0.17 µM and the minimal effective concentration [2, 4] was 0.14 µM.

In the case of CCCCNc1nc(N)nnc1OC [Compound 17], the “Human TLR 7 (LEC)” value [1] is reported as 17.49 µM and the minimal effective concentration [2, 4] is reported as 1.02 µM.
